Measured values from the NIST ThermoML archive (doi:10.1021/je200640q).
± gives the expanded uncertainty stated by the source.

Columns and labels:
[1] = Molar enthalpy of transition or fusion; details: Crystal; DSC
[2] = Crystal; DTA

- Molar enthalpy of transition or fusion [1]: 7.34 ± 0.215 kcal/mol
- Normal melting temperature [2]: 156.50 ± 0.5 °C
Structure (SMILES): CC(C)(c1ccc(O)cc1)c1ccc(O)cc1 [2,2-(4',4''-dihydroxy)diphenylpropane]
